Measured values published in the NIST ThermoML archive (doi:10.1021/je3009304).

Conditions: Liquid

C=C(F)C(F)(F)F [2,3,3,3-tetrafluoro-1-propene]
Conditions | mass density [kg/m3]
217.44 K, 14681 kPa, isochoric method | 1363.7
218.27 K, 962.6 kPa, isochoric method | 1333.8
219.23 K, 2020.3 kPa, isochoric method | 1333.7
220.22 K, 3106.5 kPa, isochoric method | 1333.6
221.18 K, 4140.3 kPa, isochoric method | 1333.5
221.97 K, 20077 kPa, isochoric method | 1363.2
222.06 K, 5097 kPa, isochoric method | 1333.4
226.65 K, 10087 kPa, isochoric method | 1332.9
226.93 K, 25988 kPa, isochoric method | 1362.7
230.27 K, 29902 kPa, isochoric method | 1362.4
231.25 K, 15017 kPa, isochoric method | 1332.4
231.72 K, 1001.1 kPa, isochoric method | 1298.5
232.84 K, 2093.9 kPa, isochoric method | 1298.4
233.76 K, 2987 kPa, isochoric method | 1298.2
234.77 K, 35121 kPa, isochoric method | 1361.9
234.92 K, 4113.3 kPa, isochoric method | 1298.2
236.02 K, 20027 kPa, isochoric method | 1332
236.13 K, 5205.1 kPa, isochoric method | 1298
240.49 K, 24777 kPa, isochoric method | 1331.5
241.06 K, 10038 kPa, isochoric method | 1297.5
245.59 K, 30165 kPa, isochoric method | 1331
246.22 K, 14993 kPa, isochoric method | 1297.1
250.28 K, 35113 kPa, isochoric method | 1330.6
251.43 K, 19983 kPa, isochoric method | 1296.6
251.62 K, 971.2 kPa, isochoric method | 1243.5
252.83 K, 1949.3 kPa, isochoric method | 1243.4
254.25 K, 3101.8 kPa, isochoric method | 1243.3
254.96 K, 39964 kPa, isochoric method | 1330.1
255.48 K, 4096.7 kPa, isochoric method | 1243.2
256.7 K, 5077.8 kPa, isochoric method | 1243.1
256.72 K, 25008 kPa, isochoric method | 1296.1
261.89 K, 29860 kPa, isochoric method | 1295.6
262.98 K, 10262 kPa, isochoric method | 1242.5
267.49 K, 35084 kPa, isochoric method | 1295.1
269.01 K, 15092 kPa, isochoric method | 1242
269.39 K, 1033.4 kPa, isochoric method | 1191.1
270.88 K, 2044.5 kPa, isochoric method | 1190.9
272.34 K, 3041.1 kPa, isochoric method | 1190.8
272.52 K, 39731 kPa, isochoric method | 1294.7
273.79 K, 4025.5 kPa, isochoric method | 1190.7
275.28 K, 5036.3 kPa, isochoric method | 1190.6
275.31 K, 20033 kPa, isochoric method | 1241.4
282.03 K, 25427 kPa, isochoric method | 1240.8
282.83 K, 10183 kPa, isochoric method | 1189.9
282.95 K, 1036 kPa, isochoric method | 1147.5
284.62 K, 2015.3 kPa, isochoric method | 1147.4
286.31 K, 3030.5 kPa, isochoric method | 1147.2
287.71 K, 29892 kPa, isochoric method | 1240.4
287.89 K, 3962.5 kPa, isochoric method | 1147.1
289.95 K, 15007 kPa, isochoric method | 1189.4
289.99 K, 5188 kPa, isochoric method | 1146.9
294.1 K, 34879 kPa, isochoric method | 1239.8
297.11 K, 19748 kPa, isochoric method | 1188.8
297.15 K, 1034.7 kPa, isochoric method | 1097.2
298.15 K, 2000 kPa, Pycnometric method | 1101.34
298.15 K, 9991.7 kPa, isochoric method | 1146.3
299.15 K, 2029.1 kPa, isochoric method | 1097.1
300.61 K, 39892 kPa, isochoric method | 1239.3
301.16 K, 3031.3 kPa, isochoric method | 1096.9
303.02 K, 3977.9 kPa, isochoric method | 1096.8
304.9 K, 24929 kPa, isochoric method | 1188.2
305.47 K, 5182.3 kPa, isochoric method | 1096.6
306.32 K, 14776 kPa, isochoric method | 1145.7
312.45 K, 29920 kPa, isochoric method | 1187.5
315.08 K, 9982 kPa, isochoric method | 1095.9
315.09 K, 19876 kPa, isochoric method | 1145
315.95 K, 2247.5 kPa, isochoric method | 1032.9
317.45 K, 2859.3 kPa, isochoric method | 1032.8
320.1 K, 34906 kPa, isochoric method | 1187
320.32 K, 4014.4 kPa, isochoric method | 1032.6
322.67 K, 4967.1 kPa, isochoric method | 1032.4
323.87 K, 24958 kPa, isochoric method | 1144.4
325.07 K, 14981 kPa, isochoric method | 1095.2
325.16 K, 5973.9 kPa, isochoric method | 1032.3
327.9 K, 39962 kPa, isochoric method | 1186.4
332.6 K, 29948 kPa, isochoric method | 1143.7
335.17 K, 2008.9 kPa, isochoric method | 935
335.17 K, 19964 kPa, isochoric method | 1094.5
335.18 K, 10007 kPa, isochoric method | 1031.6
338.63 K, 3007.2 kPa, isochoric method | 934.8
341.49 K, 35032 kPa, isochoric method | 1143.1
342.03 K, 3976.9 kPa, isochoric method | 934.7
345.34 K, 25002 kPa, isochoric method | 1093.8
345.42 K, 4963.5 kPa, isochoric method | 934.5
347.2 K, 14893 kPa, isochoric method | 1030.8
350.33 K, 40033 kPa, isochoric method | 1142.5
353.14 K, 28869 kPa, isochoric method | 1093.3
353.15 K, 7224.7 kPa, isochoric method | 934
353.15 K, 17361 kPa, isochoric method | 1030.5

FC(F)=C(F)C(F)(F)F [hexafluoropropene]
Conditions | mass density [kg/m3]
208.66 K, 4440.7 kPa, isochoric method | 1666.3
212.77 K, 9785.5 kPa, isochoric method | 1665.7
217.15 K, 15655 kPa, isochoric method | 1665.1
220.5 K, 19878 kPa, isochoric method | 1664.7
220.7 K, 1017.1 kPa, isochoric method | 1618
221.58 K, 1995.2 kPa, isochoric method | 1617.9
222.5 K, 3032.3 kPa, isochoric method | 1617.8
223.26 K, 3878.8 kPa, isochoric method | 1617.7
224.31 K, 5176.5 kPa, isochoric method | 1617.5
224.32 K, 25024 kPa, isochoric method | 1664.2
228.25 K, 29978 kPa, isochoric method | 1663.7
228.76 K, 10104 kPa, isochoric method | 1616.9
232.02 K, 34664 kPa, isochoric method | 1663.2
233.17 K, 15012 kPa, isochoric method | 1616.4
236.26 K, 39771 kPa, isochoric method | 1662.7
237.66 K, 1075 kPa, isochoric method | 1560.8
237.67 K, 20020 kPa, isochoric method | 1615.8
238.62 K, 2000 kPa, isochoric method | 1560.7
239.74 K, 3075.4 kPa, isochoric method | 1560.5
240.8 K, 4091.1 kPa, isochoric method | 1560.4
241.91 K, 5150.8 kPa, isochoric method | 1560.2
241.95 K, 25034 kPa, isochoric method | 1615.3
247.02 K, 10041 kPa, isochoric method | 1559.6
247.52 K, 30945 kPa, isochoric method | 1614.6
251.36 K, 35209 kPa, isochoric method | 1614.2
252.41 K, 1004.8 kPa, isochoric method | 1507.5
252.51 K, 15276 kPa, isochoric method | 1559
253.78 K, 2142.1 kPa, isochoric method | 1507.3
254.97 K, 3117.5 kPa, isochoric method | 1507.2
255.93 K, 40226 kPa, isochoric method | 1613.6
256.1 K, 4061.6 kPa, isochoric method | 1507
257.5 K, 5226.1 kPa, isochoric method | 1506.9
257.54 K, 20028 kPa, isochoric method | 1558.4
262.84 K, 25067 kPa, isochoric method | 1557.8
268.15 K, 30042 kPa, isochoric method | 1557.2
269.46 K, 1140.2 kPa, isochoric method | 1444.5
269.51 K, 15216 kPa, isochoric method | 1506
270.71 K, 2007.3 kPa, isochoric method | 1444.3
272.14 K, 2994.8 kPa, isochoric method | 1444.2
273.5 K, 34978 kPa, isochoric method | 1556.7
273.87 K, 4188.8 kPa, isochoric method | 1444
275.36 K, 5220.9 kPa, isochoric method | 1443.8
275.38 K, 20012 kPa, isochoric method | 1505.4
278.75 K, 39847 kPa, isochoric method | 1556.1
281.62 K, 25020 kPa, isochoric method | 1504.3
282.66 K, 10250 kPa, isochoric method | 1443.1
282.84 K, 1039.3 kPa, isochoric method | 1388.2
284.56 K, 2050.1 kPa, isochoric method | 1388.1
286.25 K, 2995.1 kPa, isochoric method | 1387.9
287.65 K, 30072 kPa, isochoric method | 1504.2
287.98 K, 4010.4 kPa, isochoric method | 1387.7
289.44 K, 14959 kPa, isochoric method | 1442.4
289.66 K, 4997.4 kPa, isochoric method | 1387.6
294.12 K, 35270 kPa, isochoric method | 1503.5
296.97 K, 20036 kPa, isochoric method | 1441.7
297.23 K, 942.2 kPa, isochoric method | 1322
298.15 K, 2000 kPa, Pycnometric method | 1326.6
298.15 K, 10003 kPa, isochoric method | 1386.8
299.3 K, 1958.7 kPa, isochoric method | 1321.8
300.38 K, 40273 kPa, isochoric method | 1502.9
301.47 K, 3021.5 kPa, isochoric method | 1321.6
303.44 K, 3963.5 kPa, isochoric method | 1321.4
304.43 K, 25120 kPa, isochoric method | 1441
305.51 K, 4983.5 kPa, isochoric method | 1321.2
307 K, 15256 kPa, isochoric method | 1385.9
311.59 K, 29972 kPa, isochoric method | 1440.3
315.78 K, 2033.9 kPa, isochoric method | 1237.1
315.78 K, 9999.6 kPa, isochoric method | 1320.4
315.78 K, 20405 kPa, isochoric method | 1385.1
317.54 K, 2708.8 kPa, isochoric method | 1237
319.05 K, 35044 kPa, isochoric method | 1439.6
320.92 K, 3993.8 kPa, isochoric method | 1236.7
323.55 K, 4999.4 kPa, isochoric method | 1236.5
324.09 K, 25251 kPa, isochoric method | 1384.4
326.52 K, 40028 kPa, isochoric method | 1438.9
326.95 K, 15464 kPa, isochoric method | 1319.4
332.97 K, 30410 kPa, isochoric method | 1383.6
335.66 K, 19726 kPa, isochoric method | 1318.7
336.51 K, 9979.8 kPa, isochoric method | 1235.5
340.74 K, 34883 kPa, isochoric method | 1382.9
345.95 K, 24723 kPa, isochoric method | 1317.8
352.67 K, 41719 kPa, isochoric method | 1381.9
353.15 K, 16419 kPa, isochoric method | 1234.2
353.15 K, 28219 kPa, isochoric method | 1317.2
